Columns and labels:
[1] = target: T1, Soybean agglutinins (SBA) lectin (Glycine max, UniProt P05046); experiment: SBA lectin binding to glycan array on polystyrene polymer slides; conditions: SBA 10 μg/ml, PAMAM G3 NHS, Cy5 labeled streptavidin
Description: (§1) (PAMAM) dendrimer generation 3 functionalized with N-hydroxysuccinimide (NHS) groups (Example 5). The glycan array was fabricated same as described in Example 7. Biotinylated lectins (e.g., SBA, FIG. 7; PNA, FIG. 8; and ConA, FIG. 9) were used for examine the binding on the glycan array by detection with a Cy5 labeled streptavidin.

[2] = target: T1, Soybean agglutinins (SBA) lectin; experiment: SBA lectin binding to O-mucin glycan microarray (NHS PAMAM G2 glass slide); conditions: SBA 1 μg/ml; O-mucin glycan microarray on glass; Cy3 labeled streptavidin
Procedure: For this purpose, a library containing 12 glycan probes representing 0-GalNAc glycan structures in mucin (Table 2) was immobilized onto a glass slide coated with PAMAM dendrimer (generation 2) terminated with NHS functional groups (Example 1). Each glycan was dissolved in a Print Buffer containing 150 mM sodium phosphate, (pH 8.5) with 100 μM concentration and printed onto the slides using ˜1 nL probe. The printing process was performed in 60% relative humidity. After printing the glycan immobilization can be enhanced by incubation at room temperature for 12 hours in 60% relative humidity.
The carbohydrate-protein interaction can be investigated by interrogating the microarray with lectins or glycan-binding proteins. In detail, first the arrayed slides were briefly rinsed in MilliQ water and then affixed into an assay chamber. The arrays were treated with a blocking buffer, such as 25 mM ethanolamine in 100 mM boric acid, 0.01% Tween 20 (pH 8.5). A biotinylated lectin (e.g., Helix pomatia Agglutinin (HPA)) or a glycan-binding protein dissolved in an Assay Buffer was subjected to the array for incubation. The Assay Buffer could be 20 mM Tris-HCl, 150 mM NaCl, 0.05% Tween 20, 1 mM CaCl2), 1 mM MgCl2, 1% BSA (pH 7.6). The protein-carbohydrate binding was detected by applying a Cy3 labeled streptavidin. The binding intensities—relative fluorescence units (RFU)—were quantified by using a fluorescence-based microarray scanner (FIG. 6).

[3] = target: T2, peanut agglutinin (PNA) lectin (Arachis hypogaea, UniProt P02872); experiment: PNA lectin binding to glycan array on polystyrene polymer slides; conditions: PNA 10 μg/ml, PAMAM G3 NHS, Cy5 labeled streptavidin
T2 sequence (P02872 24-273): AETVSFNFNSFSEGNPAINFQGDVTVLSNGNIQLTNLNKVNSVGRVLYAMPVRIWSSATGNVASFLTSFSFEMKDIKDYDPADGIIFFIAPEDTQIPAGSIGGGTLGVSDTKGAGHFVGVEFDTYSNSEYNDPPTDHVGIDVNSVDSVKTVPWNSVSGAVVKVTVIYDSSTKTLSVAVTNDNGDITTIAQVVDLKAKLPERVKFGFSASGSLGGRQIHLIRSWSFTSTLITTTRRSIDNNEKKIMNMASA
Description: as §1

[4] = system: HIV broadly neutralizing antibody 2G12; experiment: 2G12 antibody binding to high-mannose N-glycans on hydrazide substrate with or without aniline; conditions: aniline-coated substrate
Description: 2G12 is pre-complexed with Cy3 labeled anti-Human IgG (1:4 ratio). […] 2G12 is pre-complexed with Cy3 labeled anti-Human IgG (1:4 ratio). […] CD15 antibody is detected with Alexa Fluor 555-labeled anti-mouse IgM secondary antibody. […] The aniline can serve as a catalyst to increase aldehyde-hydrazide coupling efficiency, thus enhance the immobilization capability for glycans containing free reducing-end. The use of aniline as a nucleophilic catalyst accelerates bond formation through a Schiff base intermediate (mechanism in FIG. 4D).

T1 sequence (P05046 33-285): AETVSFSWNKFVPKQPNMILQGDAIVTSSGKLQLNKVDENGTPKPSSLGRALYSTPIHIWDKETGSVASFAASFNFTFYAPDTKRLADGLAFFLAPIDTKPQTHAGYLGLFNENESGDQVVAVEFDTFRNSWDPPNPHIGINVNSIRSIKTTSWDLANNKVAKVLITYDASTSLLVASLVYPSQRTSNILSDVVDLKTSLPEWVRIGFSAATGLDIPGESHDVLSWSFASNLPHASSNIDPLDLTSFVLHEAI

H2N-APGST*APP-NH2 (*α-GalNAc)
binding to SBA lectin [1]: specific binding | binding to SBA lectin [2]: specific binding

CC(=O)N[C@H]1[C@@H](OC[C@H](N)C(=O)O)O[C@H](CO)[C@H](O)[C@@H]1O [Tn-Ser, α-GalNAc-Ser]
binding to SBA lectin [2]: specific binding

H2N-TSAPDT*RPAP-NH2 (*α-GalNAc)
binding to SBA lectin [2]: specific binding

CC(=O)NC1C(OCC(N)C(=O)O)OC(CO)C(O)C1OC1OC(CO)C(O)C(O)C1O (stereo not drawn) [T-Ser, Galβ1-3GalNAcα1-Ser]
binding to PNA lectin [3]: specific binding

CC(=O)N[C@H]1[C@@H](O[C@H](C)[C@H](N)C(=O)O)O[C@H](CO)[C@H](O)[C@@H]1O [Tn-Thr, α-GalNAc-Thr]
binding to SBA lectin [1]: specific binding | binding to SBA lectin [2]: specific binding

CC(=O)NC1C(OC(C)C(N)C(=O)O)OC(CO)C(O)C1OC1OC(CO)C(O)C(O)C1O (stereo not drawn) [T-Thr, Galβ1-3GalNAcα1-Thr]
binding to PNA lectin [3]: specific binding

[Manα1-2] [Manα1-2] Manα1-6(Manα1-3)Manα1-6(Manα1-2Manα1-3)Manβ1-4GlcNAcβ1-4GlcNAc-(3 isomers) [Glycan 90]
binding to 2G12 antibody [4]: specific binding

From patent publication US11656224B2, “Multivalent glycan microarray platform” (Z Biotech, LLC, priority 2016, dated 2023)
